Experimental data as given in the supplement of paper PMC11368000.

How the values were obtained:
Conditions in all cases: exposure time: 90 min
1118 [1] = donor line of iPSC-derived cardiomyocytes; assay: POD (EC05) for increase in beat frequency (positive chronotrope) vs vehicle; higher = less potent (higher point of departure)
Procedure: (§1)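 Human iPSC-derived cardiomyocytes from 16 donors were exposed for 90 min at 37 °C to each PFAS at 0.1, 1, 10 and 100 µM in 0.5% DMSO, 384-well plates. Kinetic Ca2+ flux (FLIPR) and Hoechst nuclei counts were normalised to vehicle wells and fitted with a hierarchical Bayesian Hill model to give donor-specific PODs: EC05 for beat-rate increase or decrease and for decay-to-rise ratio increase (QT proxy), EC95 for peak-frequency loss (asystole), EC10 for total cell number loss. 0.03 µM is the lower bound.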

1368 [2] = donor line of iPSC-derived cardiomyocytes; assay: as above
Procedure: as §1

1531 = donor line of iPSC-derived cardiomyocytes; assay: as above
Procedure: as §1

20084 [3] = donor line of iPSC-derived cardiomyocytes; assay: as above
Procedure: as §1

1083 = donor line of iPSC-derived cardiomyocytes; assay: as above
Procedure: as §1

20032 [4] = donor line of iPSC-derived cardiomyocytes; assay: as above
Procedure: as §1

1309 [5] = donor line of iPSC-derived cardiomyocytes; assay: as above
Procedure: as §1

1516 [6] = donor line of iPSC-derived cardiomyocytes; assay: as above
Procedure: as §1

1118 [7] = assay: POD (EC95) for loss of peak frequency (asystole) vs vehicle; higher = less potent (higher point of departure)
In short: (§2)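 A FLIPR Tetra recorded Ca2+ flux in dye-loaded human iPSC-derived cardiomyocytes from 16 donors before and after 90 min at 37 °C with 0.1, 1, 10 and 100 µM (final concentrations, 0.5% DMSO). Vehicle-normalised beat frequency, decay-to-rise ratio or peak frequency were fitted with hierarchical Bayesian Hill models to give donor-specific points of departure. The threshold was a 5% change, or for peak frequency a 95% loss.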

1434 = donor line of iPSC-derived cardiomyocytes; assay: as above
In short: as §2

30145 = donor line of iPSC-derived cardiomyocytes; assay: as above
In short: as §2

1368 [8] = assay: as above
In short: as §2

20084 [9] = assay: as above
In short: as §2

1535 = donor line of iPSC-derived cardiomyocytes; assay: as above
In short: as §2

1565 = donor line of iPSC-derived cardiomyocytes; assay: as above
In short: as §2

20032 [10] = assay: as above
In short: as §2

11235 = donor line of iPSC-derived cardiomyocytes; assay: as above
In short: as §2

1309 [11] = assay: as above
In short: as §2

1516 [12] = assay: as above
In short: as §2

1392 = donor line of iPSC-derived cardiomyocytes; assay: as above
In short: as §2

Structure (SMILES)	POD vs vehicle 1118 [1] [µM]	POD vs vehicle 1368 [2] [µM]	POD vs vehicle 1531 [µM]	POD vs vehicle 20084 [3] [µM]	POD vs vehicle 1083 [µM]	POD vs vehicle 20032 [4] [µM]	POD vs vehicle 1309 [5] [µM]	POD vs vehicle 1516 [6] [µM]	POD vs vehicle 1118 [7] [µM]	POD vs vehicle 1434 [µM]	POD vs vehicle 30145 [µM]	POD vs vehicle 1368 [8] [µM]	POD vs vehicle 20084 [9] [µM]	POD vs vehicle 1535 [µM]	POD vs vehicle 1565 [µM]	POD vs vehicle 20032 [10] [µM]	POD vs vehicle 11235 [µM]	POD vs vehicle 1309 [11] [µM]	POD vs vehicle 1516 [12] [µM]	POD vs vehicle 1392 [µM]
O=C(O)C(F)(F)C(F)(F)F [Perfluoropropanoic_acid]	> 100	> 100	> 100	> 100	> 100	> 100	> 100	> 100	> 100	> 100	> 100	> 100	> 100	> 100	> 100	> 100	> 100	> 100	> 100	> 100
O=C(O)CCC(F)(F)C(F)(F)C(F)(F)F [3:3 Fluorotelomer carboxylic acid]	> 100	> 100	> 100	> 100	> 100	> 100	> 100	> 100	> 100	> 100	> 100	> 100	> 100	> 100	> 100	> 100	> 100	> 100	> 100	> 100
O=S(=O)(OCC(F)(F)F)C(F)(F)C(F)(F)C(F)(F)C(F)(F)F [2,2,2-Trifluoroethyl_perfluorobutanesulfonate]	> 100	> 100	> 100	> 100	> 100	> 100	> 100	> 100	> 100	> 100	> 100	> 100	> 100	> 100	> 100	> 100	> 100	> 100	> 100	> 100
O=P(O)(O)CCC(F)(F)C(F)(F)C(F)(F)C(F)(F)C(F)(F)C(F)(F)C(F)(F)C(F)(F)F [((Perfluorooctyl)ethyl)phosphonic_acid]	> 100	> 100	> 100	> 100	> 100	> 100	> 100	> 100	> 100	> 100	> 100	> 100	> 100	> 100	> 100	> 100	> 100	> 100	> 100	> 100
NC(O)(C(F)(F)F)C(F)(F)F [2-Aminohexafluoropropan-2-ol]	> 100	> 100	> 100	> 100	> 100	> 100	> 100	> 100	> 100	> 100	> 100	> 100	> 100	> 100	> 100	> 100	72.8	> 100	> 100	> 100
O=S(=O)(O)CCC(F)(F)C(F)(F)C(F)(F)C(F)(F)C(F)(F)C(F)(F)F [6:2 Fluorotelomer sulfonic acid]	> 100	> 100	> 100	> 100	> 100	> 100	> 100	> 100	> 100	> 100	> 100	> 100	> 100	> 100	> 100	> 100	> 100	> 100	> 100	> 100
O=C(O)C(F)(F)OC(F)(F)C(F)(F)OC(F)(F)C(=O)O [Perfluoro-3,6-dioxaoctane-1,8-dioic_acid]	> 100	> 100	> 100	> 100	> 100	> 100	> 100	68.4	> 100	> 100	> 100	> 100	> 100	> 100	> 100	> 100	> 100	> 100	> 100	> 100
O=C(O)C(F)(F)C(F)(F)C(F)(F)C(F)(F)C(F)(F)C(F)(F)C(F)(F)C(F)(F)C(F)(F)F [Perfluorodecanoic_acid]	> 100	> 100	> 100	> 100	> 100	> 100	> 100	> 100	9.5	67.4	> 100	> 100	> 100	> 100	> 100	> 100	67.4	> 100	68.8	> 100
O=C(O)C(F)(F)C(F)(F)C(F)(F)C(F)(F)F [Perfluoropentanoic_acid]	> 100	> 100	> 100	> 100	> 100	> 100	> 100	> 100	> 100	> 100	> 100	> 100	> 100	> 100	> 100	> 100	> 100	> 100	> 100	> 100
O=C(O)C(F)(F)OC(F)(F)C(F)(F)OC(F)(F)F [Perfluoro-3,6-dioxaheptanoic_acid]	> 100	> 100	> 100	> 100	> 100	> 100	> 100	> 100	> 100	> 100	> 100	> 100	> 100	> 100	> 100	> 100	> 100	> 100	> 100	> 100
NC(=O)C(F)(F)C(F)(F)C(F)(F)C(F)(F)C(N)=O [Octafluoroadipamide]	> 100	> 100	> 100	> 100	> 100	> 100	> 100	> 100	> 100	> 100	> 100	> 100	> 100	> 100	> 100	> 100	> 100	> 100	> 100	> 100
OCCC(F)(F)C(F)(F)C(F)(F)C(F)(F)C(F)(F)C(F)(F)C(F)(F)C(F)(F)F [8:2 Fluorotelomer alcohol]	> 100	> 100	> 100	> 100	> 100	> 100	> 100	> 100	> 100	> 100	> 100	> 100	> 100	> 100	> 100	> 100	> 100	> 100	> 100	> 100
CC(O)C(F)(F)C(F)(F)F (stereo not given) [1-Pentafluoroethylethanol]	> 100	> 100	> 100	> 100	> 100	> 100	> 100	> 100	> 100	> 100	> 100	> 100	> 100	> 100	> 100	> 100	> 100	> 100	> 100	> 100
O=S(=O)([O-])C(F)(F)C(F)(F)C(F)(F)C(F)(F)F.[K+] [Potassium_perfluorobutanesulfonate]	> 100	> 100	> 100	> 100	> 100	> 100	> 100	> 100	> 100	> 100	> 100	> 100	> 100	> 100	> 100	> 100	> 100	> 100	> 100	> 100
O=C(O)C(F)(F)C(F)(F)C(F)(F)C(F)(F)C(=O)O [Octafluoroadipic_acid]	> 100	> 100	> 100	> 100	> 100	> 100	> 100	> 100	> 100	> 100	> 100	> 100	> 100	> 100	> 100	> 100	> 100	> 100	> 100	> 100
O=C(O)C(F)(F)C(F)(F)C(F)(F)C(F)(F)C(F)(F)C(F)(F)C(F)(F)C(F)(F)C(F)(F)C(F)(F)F [Perfluoroundecanoic_acid]	> 100	> 100	> 100	> 100	> 100	> 100	> 100	> 100	> 100	> 100	> 100	> 100	> 100	> 100	> 100	> 100	95.4	> 100	> 100	> 100
O=C(O)C(F)(F)C(F)(F)C(F)(F)F [Perfluorobutanoic_acid]	> 100	> 100	> 100	> 100	> 100	> 100	> 100	> 100	> 100	> 100	> 100	> 100	> 100	> 100	> 100	> 100	> 100	> 100	> 100	> 100
O=C(O)C(F)(F)C(F)(F)C(F)(F)C(F)(F)C(F)(F)F [Perfluorohexanoic_acid]	> 100	> 100	> 100	> 100	> 100	> 100	> 100	> 100	> 100	> 100	> 100	> 100	> 100	> 100	> 100	> 100	> 100	> 100	> 100	> 100
NC(=O)C(F)(F)C(F)(F)C(F)(F)C(F)F	> 100	> 100	> 100	> 100	> 100	> 100	> 100	> 100	> 100	> 100	> 100	> 100	> 100	> 100	> 100	> 100	> 100	> 100	> 100	> 100
O=S(=O)(O)C(F)(F)C(F)(F)C(F)(F)C(F)(F)C(F)(F)C(F)(F)F [Perfluorohexanesulfonic_acid]	> 100	> 100	> 100	> 100	> 100	> 100	> 100	> 100	> 100	> 100	> 100	> 100	> 100	> 100	> 100	> 100	> 100	> 100	> 100	> 100
